A value given as a limit tells only on which side of the number the result lay.

The text below walks through data of patent US7101878B1 (Agouron Pharmaceuticals, Inc., priority 1998, dated 2006).

The target of experiment [1] is Oxytocin (Homo sapiens, UniProt P30559). Kind of experiment: biochemical.
Experiment [2] has as its target AT1 Angiotensin (Homo sapiens, UniProt P30556). Description: biochemical.
The target in experiment [3] is NK3 (Homo sapiens, UniProt P29371). Kind of experiment: biochemical.
Chain of NK3 (P29371 whole entry): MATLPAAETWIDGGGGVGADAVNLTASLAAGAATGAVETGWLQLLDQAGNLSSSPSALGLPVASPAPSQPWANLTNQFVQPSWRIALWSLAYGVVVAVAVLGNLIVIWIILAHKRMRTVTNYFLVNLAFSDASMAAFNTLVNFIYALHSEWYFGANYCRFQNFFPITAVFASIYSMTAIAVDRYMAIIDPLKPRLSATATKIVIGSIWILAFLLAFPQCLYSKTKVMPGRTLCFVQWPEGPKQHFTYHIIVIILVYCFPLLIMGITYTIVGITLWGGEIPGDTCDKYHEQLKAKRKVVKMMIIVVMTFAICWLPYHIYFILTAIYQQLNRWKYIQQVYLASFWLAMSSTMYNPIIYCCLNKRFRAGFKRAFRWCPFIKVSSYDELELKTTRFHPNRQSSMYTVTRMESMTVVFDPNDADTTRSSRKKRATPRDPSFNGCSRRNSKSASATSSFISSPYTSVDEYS
Experiment [4] addresses Choline Acetyltransferase (Homo sapiens, UniProt P28329). Kind of experiment: biochemical.
The target of experiment [5] is RARγ Retinoid (Homo sapiens, UniProt P13631). Kind of experiment: biochemical.
Chain of RARγ Retinoid (P13631 whole entry): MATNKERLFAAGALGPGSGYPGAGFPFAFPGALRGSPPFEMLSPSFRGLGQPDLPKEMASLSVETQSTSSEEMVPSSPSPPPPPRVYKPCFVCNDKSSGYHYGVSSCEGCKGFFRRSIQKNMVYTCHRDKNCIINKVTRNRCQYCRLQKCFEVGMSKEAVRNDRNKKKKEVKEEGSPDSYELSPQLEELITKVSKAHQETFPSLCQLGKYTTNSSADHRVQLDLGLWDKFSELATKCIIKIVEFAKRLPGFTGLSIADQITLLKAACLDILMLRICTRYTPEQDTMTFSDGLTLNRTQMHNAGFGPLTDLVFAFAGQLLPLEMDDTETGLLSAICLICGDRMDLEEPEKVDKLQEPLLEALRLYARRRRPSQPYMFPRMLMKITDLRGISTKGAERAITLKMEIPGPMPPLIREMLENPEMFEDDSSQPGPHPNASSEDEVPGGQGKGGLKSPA
Experiment [6] deals with RXRα Retinoid (Homo sapiens, UniProt P19793). Description: biochemical.
Chain of RXRα Retinoid (P19793 whole entry): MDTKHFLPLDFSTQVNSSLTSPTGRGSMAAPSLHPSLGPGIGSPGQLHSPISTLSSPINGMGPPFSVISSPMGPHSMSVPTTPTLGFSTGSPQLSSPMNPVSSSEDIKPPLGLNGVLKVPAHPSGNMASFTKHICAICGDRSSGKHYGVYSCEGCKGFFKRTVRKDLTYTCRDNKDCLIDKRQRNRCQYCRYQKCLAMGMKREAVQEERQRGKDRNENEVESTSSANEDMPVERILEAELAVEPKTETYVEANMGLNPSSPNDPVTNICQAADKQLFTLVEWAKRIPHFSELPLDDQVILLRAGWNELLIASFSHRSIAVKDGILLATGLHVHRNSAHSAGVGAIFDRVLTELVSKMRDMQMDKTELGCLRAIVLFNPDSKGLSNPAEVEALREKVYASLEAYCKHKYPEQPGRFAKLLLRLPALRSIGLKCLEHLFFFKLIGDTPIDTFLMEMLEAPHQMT
For experiment [7], the target named is AchE (Homo sapiens, UniProt P22303). Description: Selectivity: AchE.
Chain of AchE (P22303 32-614): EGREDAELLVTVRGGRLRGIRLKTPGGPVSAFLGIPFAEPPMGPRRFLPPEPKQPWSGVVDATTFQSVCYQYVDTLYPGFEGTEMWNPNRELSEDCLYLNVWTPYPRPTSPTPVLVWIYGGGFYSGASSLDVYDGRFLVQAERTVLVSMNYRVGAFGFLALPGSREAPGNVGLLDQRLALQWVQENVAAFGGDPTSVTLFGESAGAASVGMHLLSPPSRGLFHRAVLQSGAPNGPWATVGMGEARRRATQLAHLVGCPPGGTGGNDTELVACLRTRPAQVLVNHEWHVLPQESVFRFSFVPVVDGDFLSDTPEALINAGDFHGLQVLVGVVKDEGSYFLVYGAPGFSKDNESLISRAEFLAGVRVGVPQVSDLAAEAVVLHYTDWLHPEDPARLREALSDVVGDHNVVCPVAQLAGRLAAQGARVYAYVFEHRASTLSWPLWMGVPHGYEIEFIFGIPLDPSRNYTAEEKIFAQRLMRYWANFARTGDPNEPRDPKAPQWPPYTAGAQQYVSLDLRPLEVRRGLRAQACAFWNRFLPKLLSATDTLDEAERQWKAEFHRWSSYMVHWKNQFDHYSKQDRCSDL
Experiment [8] concerns the target M2 Muscarinic (Homo sapiens, UniProt P08172). Description: Selectivity: M2 Muscarinic.
In experiment [9] the target is Serotonin Transporter (Homo sapiens, UniProt P31645). Description: Selectivity: Serotonin Transporter.
Chain of Serotonin Transporter (P31645 whole entry): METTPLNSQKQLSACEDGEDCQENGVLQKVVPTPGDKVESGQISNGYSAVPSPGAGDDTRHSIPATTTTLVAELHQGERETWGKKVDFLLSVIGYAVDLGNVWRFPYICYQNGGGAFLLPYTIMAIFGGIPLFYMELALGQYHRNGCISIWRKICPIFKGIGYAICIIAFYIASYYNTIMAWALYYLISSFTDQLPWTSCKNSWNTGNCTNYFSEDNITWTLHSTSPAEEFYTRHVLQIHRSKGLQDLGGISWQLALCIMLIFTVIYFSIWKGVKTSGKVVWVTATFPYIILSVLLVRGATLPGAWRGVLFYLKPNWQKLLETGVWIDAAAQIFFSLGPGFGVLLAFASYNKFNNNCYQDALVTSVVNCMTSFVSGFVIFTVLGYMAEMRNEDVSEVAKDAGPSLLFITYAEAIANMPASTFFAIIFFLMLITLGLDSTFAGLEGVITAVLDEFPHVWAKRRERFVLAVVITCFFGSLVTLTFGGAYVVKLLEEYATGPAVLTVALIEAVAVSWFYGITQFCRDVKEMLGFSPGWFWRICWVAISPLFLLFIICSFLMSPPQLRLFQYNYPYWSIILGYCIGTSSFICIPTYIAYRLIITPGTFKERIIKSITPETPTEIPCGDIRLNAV
Experiment [10] deals with T1, rat GnRH receptor (Rattus norvegicus, UniProt P30969).
T1 sequence (P30969 1-327): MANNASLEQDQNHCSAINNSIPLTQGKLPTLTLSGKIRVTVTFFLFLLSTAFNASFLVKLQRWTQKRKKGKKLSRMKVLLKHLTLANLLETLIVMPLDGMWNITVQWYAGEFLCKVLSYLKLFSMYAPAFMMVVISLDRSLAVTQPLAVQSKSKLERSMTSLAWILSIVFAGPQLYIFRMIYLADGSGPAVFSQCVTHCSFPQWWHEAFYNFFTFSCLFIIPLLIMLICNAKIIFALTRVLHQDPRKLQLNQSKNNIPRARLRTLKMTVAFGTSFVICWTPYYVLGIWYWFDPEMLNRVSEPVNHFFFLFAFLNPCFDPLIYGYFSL
Description: Total inositol phosphates measurement, GGH3 cells. The experiment is classed as cell-based. Particulars: PI (inositol phosphates). How it is done: In another test, accumulation of total inositol phosphates may be measured by formic acid extraction from cells, followed by separation of the phosphates on Dowex columns. Cells are split using trypsin into two 12-well plates and pre-labeled with ^3H-myoinositol ([…]-2 mCi per mL) for 16-18 hours in inositol-free medium. The medium is then aspirated and the cells rinsed with either 1×HBSS, 20 mM HEPES (pH 7.5), or serum-free DMEM, 1×HBSS, 20 mM HEPES (pH 7.5) containing agonist, and 20 mM LiCl is then added and the cells are incubated for the desired time. The medium is aspirated and the reaction stopped by addition of ice-cold 10 mM formic acid, which also serves to extract cellular lipids. […] The columns are then washed with 10 mL of […] sodium formate and 5 mM borax, and total inositol phosphates are eluted with 4.5 mL 1M ammonium formate, 0.1M formic acid.
These cells have been extensively characterized previously (Kaiser et al., 1997). These cells were grown in low glucose Dulbecco's modified Eagle's medium (DMEM) containing: 100U/mL penicillin/streptomycin, 0.6 g/L G418 and 10% beat-inactivated fetal bovine serum
This cell line was provided by Dr. Stuart Sealfon, Mount Sinai Medical School New York, N.Y. These cells were grown in DMEM supplemented with 0.2 g/L G418 100 U/ml penicillin/streptomycin and 10% FBS. […]

Chain of Oxytocin (P30559 whole entry): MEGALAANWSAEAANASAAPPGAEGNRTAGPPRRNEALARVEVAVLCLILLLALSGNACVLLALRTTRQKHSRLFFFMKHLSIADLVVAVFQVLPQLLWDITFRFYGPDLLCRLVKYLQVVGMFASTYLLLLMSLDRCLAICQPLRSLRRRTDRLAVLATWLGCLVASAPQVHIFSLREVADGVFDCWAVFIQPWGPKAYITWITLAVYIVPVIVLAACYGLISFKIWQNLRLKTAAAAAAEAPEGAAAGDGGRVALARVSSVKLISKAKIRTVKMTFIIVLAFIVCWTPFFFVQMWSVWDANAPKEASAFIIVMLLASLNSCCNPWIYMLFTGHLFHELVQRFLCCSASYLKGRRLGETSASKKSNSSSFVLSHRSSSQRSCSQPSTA
Chain of AT1 Angiotensin (P30556 whole entry): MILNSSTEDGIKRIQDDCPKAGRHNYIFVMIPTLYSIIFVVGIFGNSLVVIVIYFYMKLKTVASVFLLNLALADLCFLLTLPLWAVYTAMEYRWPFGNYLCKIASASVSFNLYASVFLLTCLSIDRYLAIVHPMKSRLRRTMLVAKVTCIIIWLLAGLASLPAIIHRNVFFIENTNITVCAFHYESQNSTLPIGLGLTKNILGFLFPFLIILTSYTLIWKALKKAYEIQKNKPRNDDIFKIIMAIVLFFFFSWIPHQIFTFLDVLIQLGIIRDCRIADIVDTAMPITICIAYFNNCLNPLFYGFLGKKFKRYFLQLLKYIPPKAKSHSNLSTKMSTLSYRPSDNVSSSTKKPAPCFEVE
Chain of M2 Muscarinic (P08172 whole entry): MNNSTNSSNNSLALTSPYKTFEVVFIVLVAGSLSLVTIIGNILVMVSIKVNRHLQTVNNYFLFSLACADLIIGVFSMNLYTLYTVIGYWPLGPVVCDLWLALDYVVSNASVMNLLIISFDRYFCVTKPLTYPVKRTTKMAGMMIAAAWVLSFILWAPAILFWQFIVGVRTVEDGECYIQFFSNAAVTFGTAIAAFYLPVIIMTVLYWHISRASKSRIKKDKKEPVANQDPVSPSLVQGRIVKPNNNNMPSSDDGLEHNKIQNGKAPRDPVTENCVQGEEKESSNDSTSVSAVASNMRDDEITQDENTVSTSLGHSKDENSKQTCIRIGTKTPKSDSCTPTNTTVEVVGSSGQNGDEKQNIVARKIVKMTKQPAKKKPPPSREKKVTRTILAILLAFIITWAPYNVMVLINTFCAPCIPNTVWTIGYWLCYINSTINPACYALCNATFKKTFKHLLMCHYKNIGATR
Chain of Choline Acetyltransferase (P28329 whole entry): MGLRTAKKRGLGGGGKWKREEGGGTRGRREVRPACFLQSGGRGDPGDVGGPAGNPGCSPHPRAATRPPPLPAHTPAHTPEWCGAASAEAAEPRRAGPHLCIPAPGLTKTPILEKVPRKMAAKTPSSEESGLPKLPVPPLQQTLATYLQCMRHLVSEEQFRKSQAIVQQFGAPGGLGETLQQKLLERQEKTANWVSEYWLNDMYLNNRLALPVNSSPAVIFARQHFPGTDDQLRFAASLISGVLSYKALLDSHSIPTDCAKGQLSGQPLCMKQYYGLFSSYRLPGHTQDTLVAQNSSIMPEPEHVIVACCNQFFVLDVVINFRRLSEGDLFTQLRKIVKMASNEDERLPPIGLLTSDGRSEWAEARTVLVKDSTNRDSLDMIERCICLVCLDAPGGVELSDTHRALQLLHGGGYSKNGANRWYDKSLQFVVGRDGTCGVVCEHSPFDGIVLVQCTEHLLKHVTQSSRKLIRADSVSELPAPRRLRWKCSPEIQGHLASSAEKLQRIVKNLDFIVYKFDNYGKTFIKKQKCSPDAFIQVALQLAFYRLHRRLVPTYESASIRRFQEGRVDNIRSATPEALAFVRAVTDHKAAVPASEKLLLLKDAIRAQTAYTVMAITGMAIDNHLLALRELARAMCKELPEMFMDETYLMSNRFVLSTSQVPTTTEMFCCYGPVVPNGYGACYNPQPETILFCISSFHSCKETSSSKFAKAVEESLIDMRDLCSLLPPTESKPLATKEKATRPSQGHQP

In the case of `COc1cccc(OC)c1NC(=O)c1ccc(Cc2cc3c(cc2C)C(C)(C)CCC3(C)C)o1` [Compound 20], the Ki is over 1000 nM in experiment [1]; 3000 to 5000 nM in experiment [2]; 1000 to 5000 nM in [3]; over 1000 nM in experiment [4]; over 10000 nM in experiment [5]; over 10000 nM in experiment [6]. Further, the Ki in [7], in experiment [8] and in [9] was over 1000 nM in each case.
The compound `Cc1cc2c(cc1Cc1ccc(C(=O)NCc3cccc(CNc4ccnc(NC[C@@H]5CCCO5)n4)c3)o1)C(C)(C)CCC2(C)C` [Compound 136] showed a Kb in experiment [10] of 6.3 nM.
